For orientation: EC50 means the midpoint of the concentration-response curve.

The assay addresses T1, human FPR2 receptors (Homo sapiens, UniProt P25090).
T1 sequence (P25090 1-351): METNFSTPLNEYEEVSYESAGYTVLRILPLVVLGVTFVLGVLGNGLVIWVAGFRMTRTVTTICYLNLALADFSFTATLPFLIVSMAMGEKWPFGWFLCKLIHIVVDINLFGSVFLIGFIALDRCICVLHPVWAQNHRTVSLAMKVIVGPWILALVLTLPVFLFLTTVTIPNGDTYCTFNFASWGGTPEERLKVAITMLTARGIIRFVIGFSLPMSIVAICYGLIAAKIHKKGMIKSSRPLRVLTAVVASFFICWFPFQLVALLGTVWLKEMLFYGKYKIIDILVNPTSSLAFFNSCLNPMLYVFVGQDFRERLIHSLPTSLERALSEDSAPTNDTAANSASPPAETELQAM
Put plainly: FPR2 cAMP assay in CHO cells overexpressing human FPR2 (HTRF). It is filed as cell-based. The note with it: hFPR2 assay; potency bins; read-out: hFPR2 agonist activity EC50. The text has this:
N-formyl peptide receptors (FPRs) are a family of chemo attractant receptors that facilitate leukocyte response during inflammation. FPRs belong to the seven-transmembrane G protein-coupled receptor superfamily and are linked to inhibitory G-proteins (Gi). Three family members (FPR1, FPR2 and FPR3) have been identified in humans and are predominantly found in myeloid cells with varied distribution and have also been reported in multiple organs and tissues. After agonist binding, the FPRs activate a multitude of physiological pathways, such as intra cellular signaling transduction, Ca^2+ mobilization and transcription. The family interacts with a diverse set of ligands that includes proteins, polypeptides and fatty acid metabolites which activate both pro-inflammatory and pro-resolution downstream responses. FPR2 and FPR1 Cyclic Adenosine Monophosphate (cAMP) Assays were used to measure the in vitro activity of the compounds disclosed in this application.
FPR2 and FPR1 Cyclic Adenosine Monophosphate (cAMP) Assays. A mixture of forskolin (5 μM final for FPR2 or 10 μM final for FPR1) and IBMX (200 μM final) were added to 384-well Proxiplates (Perkin-Elmer) pre-dotted with test compounds in DMSO (1% final) at final concentrations in the range of 0.020 nM to 100 μM. Chinese Hamster Ovary cells (CHO) overexpressing human FPR1 or human FPR2 receptors were cultured in F-12 (Ham's) medium supplemented with 10% qualified FBS, 250 μg/ml zeocin and 300 μg/ml hygromycin (Life Technologies). Reactions were initiated by adding 2,000 human FPR2 cells per well or 4,000 human FPR1 cells per well in Dulbecco's PBS (with calcium and magnesium) (Life Technologies) supplemented with 0.1% BSA (Perkin-Elmer). The reaction mixtures were incubated for 30 min at room temperature. The level of intracellular cAMP was determined using the HTRF HiRange cAMP assay reagent kit (Cisbio) according to manufacturer's instruction. Solutions of cryptate conjugated anti-cAMP and d2 flurorophore-labelled cAMP were made in a supplied lysis buffer separately. Upon completion of the reaction, the cells were lysed with equal volume of the d2-cAMP solution and anti-cAMP solution. After a 1-h room temperature incubation, time-resolved fluorescence intensity was measured using the Envision (Perkin-Elmer) at 400 nm excitation and dual emission at 590 nm and 665 nm. A calibration curve was constructed with an external cAMP standard at concentrations ranging from 1 μM to 0.1 pM by plotting the fluorescent intensity ratio from 665 nm emission to the intensity from the 590 nm emission against cAMP concentrations. The potency and activity of a compound to inhibit cAMP production was then determined by fitting to a 4-parametric logistic equation from a plot of cAMP level versus compound concentrations.
For the compound `COc1cc(F)c([C@@H]2CNC(=O)[C@H]2Nc2nnc(C3CC3c3ccc(Cl)cc3)o2)c(F)c1` (stereo partly drawn) [Example 41, (3S,4R)-3-({5-[2-(4-chlorophenyl)cyclopropyl]-1,3,4-oxadiazol-2-yl}amino)-4-(2,6-difluoro-4-methoxyphenyl)pyrrolidin-2-one], the EC50 is no more than 0.04 µM.

As to `COc1cc(F)c([C@@H]2CNC(=O)[C@H]2Nc2nnc(-c3ccc(Oc4cncc(C)n4)cc3)o2)c(F)c1` [Example 63, (3S,4R)-4-(2,6-difluoro-4-methoxyphenyl)-3-[(5-{4-[(6-methylpyrazin-2-yl)oxy]phenyl}-1,3,4-oxadiazol-2-yl)amino]pyrrolidin-2-one], the EC50 was in the range of 0.04 to 0.15 µM. As for `COc1cc(F)c([C@@H]2CNC(=O)[C@H]2Nc2nnc(C3CC3c3ccc(Cl)cc3F)o2)c(F)c1` (stereo partly drawn) [Example 46, (3S,4R)-3-({5-[2-(4-chloro-2-fluorophenyl)cyclopropyl]-1,3,4-oxadiazol-2-yl}amino)-4-(2,6-difluoro-4-methoxyphenyl)pyrrolidin-2-one], the figure is no more than 0.04 µM. As for `COc1cc(F)c([C@@H]2CNC(=O)[C@H]2Nc2nnc(-c3ccc(Cl)cc3)s2)c(F)c1` [Example 2, (3S,4R)-3-{[5-(4-chlorophenyl)-1,3,4-thiadiazol-2-yl]amino}-4-(2,6-difluoro-4-methoxyphenyl)pyrrolidin-2-one], the figure is no more than 0.04 µM. As for `COc1cc(F)c([C@@H]2CNC(=O)[C@H]2Nc2nnc(-c3ccc(Oc4cc(OC)ncn4)cc3)o2)c(F)c1` [Example 62, (3S,4R)-4-(2,6-difluoro-4-methoxyphenyl)-3-[(5-{4-[(6-methoxypyrimidin-4-yl)oxy]phenyl}-1,3,4-oxadiazol-2-yl)amino]pyrrolidin-2-one], the figure is 0.04 to 0.15 µM; as for `COc1cc(F)c([C@@H]2CNC(=O)[C@H]2Nc2nnc(C(=O)NCc3ccc(Cl)cc3)o2)c(F)c1` [Example 53, N-[(4-chlorophenyl)methyl]-5-{[(3S,4R)-4-(2,6-difluoro-4-methoxyphenyl)-2-oxopyrrolidin-3-yl]amino}-1,3,4-oxadiazole-2-carboxamide], 0.04 to 0.15 µM.

For the compound `COc1cc(F)c([C@@H]2CNC(=O)[C@H]2Nc2nnc(-c3ccc(F)c(F)c3)o2)c(F)c1` [Example 5, (3S,4R)-4-(2,6-difluoro-4-methoxyphenyl)-3-{[5-(3,4-difluorophenyl)-1,3,4-oxadiazol-2-yl]amino}pyrrolidin-2-one], the EC50 fell in the range of 0.15 to 1 µM. For the compound `COc1cc(F)c([C@@H]2CNC(=O)[C@H]2Nc2nnc(C3CCC(F)(F)CC3)o2)c(F)c1` [Example 25, (3S,4R)-4-(2,6-difluoro-4-methoxyphenyl)-3-{[5-(4,4-difluorocyclohexyl)-1,3,4-oxadiazol-2-yl]amino}pyrrolidin-2-one], the concentration for a half-maximal effect (EC50) is 0.15 to 1 µM. As for `COc1cc(F)c([C@@H]2CNC(=O)[C@H]2Nc2nnc(-c3ccc(C)cc3)o2)c(F)c1` [Example 11, (3S,4R)-4-(2,6-difluoro-4-methoxyphenyl)-3-{[5-(4-methylphenyl)-1,3,4-oxadiazol-2-yl]amino}pyrrolidin-2-one], the figure is 0.15 to 1 µM; as for `COc1cc(F)c([C@@H]2CNC(=O)[C@H]2Nc2nnc(-c3ccc(Oc4ccc(Cl)cc4)cc3)o2)c(F)c1` [Example 40, (3S,4R)-3-({5-[4-(4-chlorophenoxy)phenyl]-1,3,4-oxadiazol-2-yl}amino)-4-(2,6-difluoro-4-methoxyphenyl)pyrrolidin-2-one], no more than 0.04 µM; as for `COc1cc(F)c([C@@H]2CNC(=O)[C@H]2Nc2nnc(-c3ccc(C(F)(F)F)nc3)s2)c(F)c1` [Example 33, (3S,4R)-4-(2,6-difluoro-4-methoxyphenyl)-3-({5-[6-(trifluoromethyl)pyridin-3-yl]-1,3,4-thiadiazol-2-yl}amino)pyrrolidin-2-one], 0.15 to 1 µM. As for `COc1cc(F)c([C@@H]2CNC(=O)[C@H]2Nc2nnc(-c3ccc(F)cc3)o2)c(F)c1` [Example 12, (3S,4R)-4-(2,6-difluoro-4-methoxyphenyl)-3-{[5-(4-fluorophenyl)-1,3,4-oxadiazol-2-yl]amino}pyrrolidin-2-one], the figure is 0.04 to 0.15 µM.

Regarding `COc1cc(F)c([C@@H]2CNC(=O)[C@H]2Nc2noc3cc(Cl)ccc23)c(F)c1` [Example 50, (3S,4R)-3-[(6-chloro-1,2-benzoxazol-3-yl)amino]-4-(2,6-difluoro-4-methoxyphenyl)pyrrolidin-2-one], the EC50 is no more than 0.04 µM. As for `COc1cc(F)c([C@@H]2CNC(=O)[C@H]2Nc2nnc(-c3ccc(C(F)F)cc3)o2)c(F)c1` [Example 17, (3S,4R)-4-(2,6-difluoro-4-methoxyphenyl)-3-({5-[4-(difluoromethyl)phenyl]-1,3,4-oxadiazol-2-yl}amino)pyrrolidin-2-one], the figure is 0.04 to 0.15 µM. For the compound `COc1cc(F)c([C@@H]2CNC(=O)[C@H]2Nc2nnc(C(=O)NCCc3ccc(Cl)cc3)o2)c(F)c1` [Example 54, N-[2-(4-chlorophenyl)ethyl]-5-{[(3S,4R)-4-(2,6-difluoro-4-methoxyphenyl)-2-oxopyrrolidin-3-yl]amino}-1,3,4-oxadiazole-2-carboxamide], the EC50 fell in the range of 0.15 to 1 µM. On to `COc1cc(F)c([C@@H]2CNC(=O)[C@H]2Nc2nnc(-c3ccc(OC(F)(F)F)cc3)s2)c(F)c1` [Example 30, (3S,4R)-4-(2,6-difluoro-4-methoxyphenyl)-3-({5-[4-(trifluoromethoxy)phenyl]-1,3,4-thiadiazol-2-yl}amino)pyrrolidin-2-one], for which the EC50 lay in the range of 0.04 to 0.15 µM.

In the case of `COc1cc(F)c([C@@H]2CNC(=O)[C@H]2Nc2ncc(-c3ccc(Cl)cc3)o2)c(F)c1` [Example 24, (3S,4R)-3-{[5-(4-chlorophenyl)-1,3-oxazol-2-yl]amino}-4-(2,6-difluoro-4-methoxyphenyl)pyrrolidin-2-one], the EC50 lay in the range of 0.15 to 1 µM. For `COc1cc(F)c([C@@H]2CNC(=O)[C@H]2Nc2nnc(-c3cccnc3)o2)c(F)c1` [Example 6, (3S,4R)-4-(2,6-difluoro-4-methoxyphenyl)-3-{[5-(pyridin-3-yl)-1,3,4-oxadiazol-2-yl]amino}pyrrolidin-2-one], the EC50 is 0.15 to 1 µM. As for `COc1cc(F)c([C@@H]2CNC(=O)[C@H]2Nc2nnc(-c3ccc(C(F)(F)F)nc3)o2)c(F)c1` [Example 10, (3S,4R)-4-(2,6-difluoro-4-methoxyphenyl)-3-({5-[6-(trifluoromethyl)pyridin-3-yl]-1,3,4-oxadiazol-2-yl}amino)pyrrolidin-2-one], the figure is no more than 0.04 µM; as for `COc1cc(F)c([C@@H]2CNC(=O)[C@H]2Nc2nnc(-c3ccc(Cl)nc3)s2)c(F)c1` [Example 31, (3S,4R)-3-{[5-(6-chloropyridin-3-yl)-1,3,4-thiadiazol-2-yl]amino}-4-(2,6-difluoro-4-methoxyphenyl)pyrrolidin-2-one], 0.04 to 0.15 µM. As for `COc1cc(F)c([C@@H]2CNC(=O)[C@H]2Nc2nnc(-c3ccc(Oc4ccccc4)cc3)o2)c(F)c1` [Example 35, (3S,4R)-4-(2,6-difluoro-4-methoxyphenyl)-3-{[5-(4-phenoxyphenyl)-1,3,4-oxadiazol-2-yl]amino}pyrrolidin-2-one], the figure is no more than 0.04 µM; as for `COc1cc(F)c([C@@H]2CNC(=O)[C@H]2Nc2nnc(-c3ccc(Oc4cc(Cl)ccn4)cc3)o2)c(F)c1` [Example 68, (3S,4R)-3-[(5-{4-[(4-chloropyridin-2-yl)oxy]phenyl}-1,3,4-oxadiazol-2-yl)amino]-4-(2,6-difluoro-4-methoxyphenyl)pyrrolidin-2-one], no more than 0.04 µM.

As to `COc1cc(F)c([C@@H]2CNC(=O)[C@H]2Nc2nnc(-c3ccc(Oc4ccc(Cl)cn4)cc3)o2)c(F)c1` [Example 55, (3S,4R)-3-[(5-{4-[(5-chloropyridin-2-yl)oxy]phenyl}-1,3,4-oxadiazol-2-yl)amino]-4-(2,6-difluoro-4-methoxyphenyl)pyrrolidin-2-one], the EC50 is no more than 0.04 µM.
